# Experimental data as given in patent US10064853B2, “Compounds for use in methods for treating diseases or conditions mediated by protein disulfide isomerase” (Beth Israel Deaconess Medical Center, Inc., priority 2013, dated 2018).
# Read-outs that look alike come from different tables or passages of the source.
# Columns and labels:
# human PDI = human PDI (Homo sapiens (Human), UniProt P07237); experiment: Insulin turbidimetric assay of PDI reductase activity; assay type: biochemical
# Protocol: (§1) PDI inhibitors were evaluated in an insulin turbidimetric assay to assess their ability to block the reductase activity of PDI. The assay measured the aggregation of insulin chains by monitoring absorbance at 650 nm as previously described in Jasuja, R. et al. Protein disulfide isomerase inhibitors constitute a new class of antithrombotic agents. J Clin Invest 122, 2104-2113 (2012) (hereinafter “Jasija”). Cleavage of disulfide bonds within insulin by PDI results in aggregation of insulin. When PDI is inhibited, there is a decrease in aggregation of insulin, and therefore a decrease in absorbance signal at 650 nm. Recombinant human PDI expressed and purified from E. coli., mixed with bovine insulin (Sigma), and added to assay plates. The reaction mixture for insulin reduction assays contained 100 mM potassium phosphate, pH 7.4; 0.75 mM DTT, 2 mM EDTA, 0.1 mM bovine insulin, and 0.8 μM purified human PDI in a total volume of 135 μl in a 96 well plate. The progress of the reaction was monitored for 30 min at 23° C. Indicated inhibitors or control buffer was added prior to the addition of enzyme at the concentrations indicated. PDI activity in the presence of compound was determined by the formula, PDI activity (%)={OD(compound+PDI+DTT)−OD(DTT)}/{OD(PDI+DTT)−OD(DTT)}×100 % enzyme inhibition={1−(ODmax(compound+enzyme)/ODmax(buffer control+enzyme)}
# IC50 values were calculated using non-linear regression analysis.
# ERp5 = ERp5 (Homo sapiens (Human), UniProt Q15084); experiment: Insulin turbidimetric assay counter screen, ERp5; assay type: biochemical
# Chain of ERp5 (Q15084 20-440, species assumed): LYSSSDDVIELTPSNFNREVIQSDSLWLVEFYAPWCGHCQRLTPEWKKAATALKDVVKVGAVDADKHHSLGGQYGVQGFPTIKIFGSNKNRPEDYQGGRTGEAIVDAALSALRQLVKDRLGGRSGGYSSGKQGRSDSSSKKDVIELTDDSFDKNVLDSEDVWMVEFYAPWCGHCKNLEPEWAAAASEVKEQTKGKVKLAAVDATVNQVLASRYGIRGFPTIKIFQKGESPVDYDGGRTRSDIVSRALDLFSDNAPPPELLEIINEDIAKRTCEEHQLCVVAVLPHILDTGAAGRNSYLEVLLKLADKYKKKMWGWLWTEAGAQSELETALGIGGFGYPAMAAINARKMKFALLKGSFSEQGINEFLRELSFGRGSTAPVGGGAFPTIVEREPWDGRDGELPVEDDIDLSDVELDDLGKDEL
# Protocol: as §1
# (§2) The insulin turbidimetric assay was used with alternative thiol isomerases to evaluate the specificity of inhibitors, as shown in Tables B and C. Other oxidoreductases used to evaluate the specificity of inhibitors include ERp5, thioredoxin (TR), and thioredoxin reductase (TRR).
# Thioredoxin = Thioredoxin (Homo sapiens (Human), UniProt P10599); experiment: Insulin turbidimetric assay counter screen, thioredoxin; assay type: biochemical
# Chain of Thioredoxin (P10599 whole entry, species assumed): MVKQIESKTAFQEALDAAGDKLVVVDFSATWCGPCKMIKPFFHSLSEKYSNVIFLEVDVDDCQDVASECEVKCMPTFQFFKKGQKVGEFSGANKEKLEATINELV
# Protocol: as §1, §2
# Thioredoxin reductase = experiment: Insulin turbidimetric assay counter screen, thioredoxin reductase; assay type: biochemical
# Protocol: as §1, §2
# ERp57 = ERp57 (Homo sapiens (Human), UniProt P30101); experiment: Insulin turbidimetric assay counter screen, ERp57; assay type: biochemical; details: Table B; read-out: Counter Screen: Selectivity against other thiol isomerases IC50 ERp57
# Chain of ERp57 (P30101 25-505, species assumed): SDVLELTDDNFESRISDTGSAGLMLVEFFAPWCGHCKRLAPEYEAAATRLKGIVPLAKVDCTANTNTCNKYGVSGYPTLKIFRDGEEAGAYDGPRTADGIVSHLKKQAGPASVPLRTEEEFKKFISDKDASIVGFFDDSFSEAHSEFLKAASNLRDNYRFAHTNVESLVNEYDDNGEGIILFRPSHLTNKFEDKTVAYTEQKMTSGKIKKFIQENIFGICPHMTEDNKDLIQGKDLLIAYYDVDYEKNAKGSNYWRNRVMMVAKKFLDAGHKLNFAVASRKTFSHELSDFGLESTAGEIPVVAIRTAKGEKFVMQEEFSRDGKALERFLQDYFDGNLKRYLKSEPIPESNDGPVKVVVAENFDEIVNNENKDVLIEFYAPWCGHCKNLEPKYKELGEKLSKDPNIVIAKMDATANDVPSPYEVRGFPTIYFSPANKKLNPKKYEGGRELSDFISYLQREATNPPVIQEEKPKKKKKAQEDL
# Protocol: as §1, §2
# [1] = Stability of PDI inhibitors in human plasma; assay type: in vitro ADME; details: 1 μM, room temperature
# Protocol: (§3) The stability of PDI inhibitors was measured in the presence of PBS pH 7.4 with 1% DMSO. PDI inhibitors were added to plasma (in triplicate at 1 μM) on six separate plates and allowed to equilibrate at room temperature for 48 hours. At each time point (0, 2, 4, 8, 24, and 48 hours), one plate was removed and an aliquot was taken out from each well and analyzed by UPLC-MS.
# [2] = Stability of PDI inhibitors in mouse plasma; assay type: in vitro ADME; details: 1 μM, room temperature
# Protocol: as §3
# washed platelets = experiment: Platelet aggregation (SFLLRN-induced, washed platelets); assay type: cell-based; details: inhibition of platelet aggregation; compounds at 30 μM, 30 minutes at 37° C., SFLLRN-initiated
# Protocol: Platelet Rich Plasma (PRP) was prepared from whole blood obtained from individual donors and drawn into Acid Citrate Dextrose (ACD) at 15% of total volume. PGE-1 was added to a final concentration of 0.15 µM to maintain the resting state. PRP was spun at 1000 g×10 minutes and the supernatant was discarded. The platelet pellet was resuspended in Modified HEPES-Tyrodes buffer pH 7.3. The 1× washed platelets were incubated for 20 minutes at 37° C. until they were in a quiescent state. The above washing procedure was then repeated. The 2× washed platelets were allowed to rest for 20 minutes at 37° C. Platelets were then counted and the concentration of platelets in suspension was adjusted to 200,000 platelets/µL. The 2× washed platelets were treated with compounds at 30 µM, and were incubated for 30 minutes at 37° C. Following incubation, platelets were added to a cuvette and stirred at 37° C. in a Chrono-Log Platelet Aggregometer. In order to initiate aggregation, a concentration of SFLLRN, the thrombin receptor activating peptide, sufficient to elicit 60-70% light transmittance was added to the cuvette. Therefore, a range of 2-3 µM SFLLRN was used in order to accommodate small differences in sensitivity to SFLLRN between individual donors. Prior to reading, the aggregometer was scaled so that unstimulated, washed platelets are set to 0% light transmittance, and buffer alone with no platelets is set to 100% light transmittance. The light transmittance of each sample was recorded as a measure of aggregation. Data were recorded as a single point representing maximum aggregation in the presence of compound and were compared to samples exposed to vehicle (DMSO) alone. See Jasuja
# [3] = Table A, average of two independent experiments, read-out: PDI_Inhibition_ IC50
# [4] = Table B, read-out: PDI_ Inhibition_ IC50
# [5] = insulin reductase assay, recombinant human PDI, read-out: PDI_Inhibition_ IC50
# [6] = Table B, read-out: Counter Screen: Selectivity against other thiol isomerases IC50 ERp5
# [7] = Table C, read-out: Specif. (ERp5, TR, TRR): ERp5
# [8] = Table B, read-out: Counter Screen: Selectivity against other thiol isomerases IC50 Thioredoxin
# [9] = Table C, read-out: Specif. (ERp5, TR, TRR): TR
# [10] = Table B, read-out: Counter Screen: Selectivity against other thiol isomerases IC50 Thioredoxin reductase
# [11] = Table C, read-out: Specif. (ERp5, TR, TRR): TRR
# Chain of human PDI (P07237 18-508): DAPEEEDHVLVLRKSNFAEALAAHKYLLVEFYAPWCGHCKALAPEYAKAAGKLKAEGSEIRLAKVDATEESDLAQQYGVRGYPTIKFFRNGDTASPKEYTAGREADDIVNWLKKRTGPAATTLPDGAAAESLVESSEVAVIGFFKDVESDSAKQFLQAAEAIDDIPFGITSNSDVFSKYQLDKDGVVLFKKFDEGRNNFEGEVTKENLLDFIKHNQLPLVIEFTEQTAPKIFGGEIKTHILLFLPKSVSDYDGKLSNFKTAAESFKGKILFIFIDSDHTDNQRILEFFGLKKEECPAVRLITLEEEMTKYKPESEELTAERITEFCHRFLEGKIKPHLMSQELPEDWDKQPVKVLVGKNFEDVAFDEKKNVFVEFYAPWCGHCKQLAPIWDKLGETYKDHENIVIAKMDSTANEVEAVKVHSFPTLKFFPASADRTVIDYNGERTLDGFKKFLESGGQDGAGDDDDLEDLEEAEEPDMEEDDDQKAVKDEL
Structure (SMILES),IC50 (human PDI; [3]) [µM],IC50 (human PDI; [4]) [µM],"IC50 (human PDI; Table C, PDI, read-out: IC50) [µM]",IC50 (human PDI; [5]) [µM],IC50 (ERp5; [6]) [µM],IC50 (ERp5; [7]) [µM],IC50 (Thioredoxin; [8]) [µM],IC50 (Thioredoxin; [9]) [µM],IC50 (Thioredoxin reductase; [10]) [µM],IC50 (Thioredoxin reductase; [11]) [µM],IC50 (ERp57) [µM],Plasma stability human [1] [%],Plasma stability mouse [2] [%],Platelet Aggregation (washed platelets)
"CCOC(=O)C1(CCOc2ccccc2)CCN(Cc2ccc(O)c(Cl)c2)CC1 [Compound 1, Ethyl 1-(3-chloro-4-hydroxybenzyl)-4-(2-phenoxyethyl)piperidine-4-carboxylate]",0.25,0.25,0.3 to 0.6,0.25,> 30,> 30,> 30,> 30,> 30,> 30,> 30,100,5.3,25-50%
CCOC(=O)C1(CCOc2ccccc2)CCN(Cc2ccc(OC)c(Cl)c2)CC1 [Compound 4],> 30,> 30,,> 30,,,> 30,,> 30,,> 30,,,
C=CCOc1ccc(CN2CCC(CCOc3ccccc3)(C(=O)OCC)CC2)cc1Cl [Compound 5],> 30,,,> 30,,,,,,,,,,
CCOC(=O)C1(CCOc2ccccc2)CCN(Cc2ccc(OC)cc2)CC1 [Compound 6],> 30,,,> 30,,,,,,,,,,
CCOC(=O)C1(CCOc2ccccc2)CCN(Cc2ccc(O)cc2)CC1 [Compound 7],,15,,,,,> 30,,> 30,,> 30,,,
CCOC(=O)C1(CCOc2ccccc2)CCN(Cc2ccc3[nH]c(=O)oc3c2)CC1 [Compound 8],> 30,,,> 30,,,,,,,,,,
CCOC(=O)C1(CCOc2ccccc2)CCN(C(=O)c2ccc(O)c(Cl)c2)CC1 [Compound 9],2.25,2.25,2.25,2.25,,> 30,> 30,> 30,> 30,> 30,> 30,100,100,100%
CC(C)OC(=O)C1(CCOc2ccccc2)CCN(Cc2ccc(O)c(Cl)c2)CC1 [Compound 13],0.85,0.85,0.85,0.85,> 30,> 30,> 30,> 30,> 30,> 30,> 30,97.9,75.3,97%
CC(C)(C)OC(=O)C1(CCOc2ccccc2)CCN(Cc2ccc(O)c(Cl)c2)CC1 [Compound 14],0.65,0.65,0.65,0.65,> 30,> 30,> 30,> 30,> 30,> 30,> 30,98.7,95.6,100%
CCNC(=O)C1(CCOc2ccccc2)CCN(Cc2ccc(O)c(Cl)c2)CC1 [Compound 15],> 30,,,> 30,,,,,,,,,,
CCN(C)C(=O)C1(CCOc2ccccc2)CCN(Cc2ccc(O)c(Cl)c2)CC1 [Compound 16],3,3,,3,,,> 30,,> 30,,> 30,,,
O=C(NC1CCCC1)C1(CCOc2ccccc2)CCN(Cc2ccc(O)c(Cl)c2)CC1 [Compound 17],4,4,,4,,,> 30,,> 30,,> 30,,,
O=C(N1CCCC1)C1(CCOc2ccccc2)CCN(Cc2ccc(O)c(Cl)c2)CC1 [Compound 18],> 30,,,> 30,,,,,,,,,,
O=C(Nc1ccccc1)C1(CCOc2ccccc2)CCN(Cc2ccc(O)c(Cl)c2)CC1 [Compound 19],22.5,22.5,,22.5,,,> 30,,> 30,,> 30,,,
